Measured values as given in patent publication US10507215B2, “Compounds for the treatment of addiction” (Amygdala Neurosciences, Inc., priority 2011, dated 2019).

Columns and labels:
Format in all cases: in vivo
[1] = system: Male SD rats; assay: Rat nicotine self administration, acute treatment
Method: Male SD rats were trained to self administer i.v. nicotine (0.03 mg/kg/inj) daily (Monday to Friday) in standard operant chambers with retractable levers (MED Associates, Inc) as previously published (Levin et al., 2003; Levin et al., 2007). During the daily 45 min session, rats received 0.05 ml infusion of 0.03 mg/kg/infusion of nicotine every time the active lever was pressed. A cue light and tone turned on for 0.5 sec together with the activation of a pump that delivered the nicotine solution. Daily sessions were run for at least 10 days before the initiation of drug testing. Solutions of compounds of Example 2 and Example 5 were prepared fresh daily in Formulation 2B: 25% PEG400/5% Vit E TPGS/1% SLS/69% water with 0.5% Methocel) for oral dosing. Compound of Example 2 doses were administered in a counterbalanced design for testing 1 hr before each nicotine session. Every rat received all drug doses and vehicle in a randomly assigned order. The oral drug administrations were made twice per week.
Compound of Example 5 was tested in a study using 4 independent groups. Each group received either oral vehicle or 1 of the 3 doses of compound of Example 5 (5, 10 or 30 mg-eq/kg). […] The 5 mg/kg dose was ineffective.

[2] = system: Male SD rats; assay: Rat nicotine self administration, 7-day chronic treatment; details: 7 consecutive days
Method: Upon completion of the acute compound of Example 5 treatment study, the same animals were used to test the effect of 7-day chronic oral administration of compound of Example 5 in the nicotine self administration model. Rats were treated orally with compound of Example 5 (5, 10 or 30 mg-eq/kg) or vehicle 1 hr before nicotine self administration session for 7 consecutive days. […] Similar to the acute treatment, the 5 mg-eq/kg dose was ineffective (FIG. 7). […] Animals in nicotine self administration studies had to reach pre defined criteria (e.g. rat strain, minimum number of nicotine infusions, consistent baseline nicotine self administration throughout the study, patent iv catheters, etc.) to be included in analysis.

[3] = system: male Sprague Dawley (SD) rats; assay: Rat cocaine cue reinstatement; details: for inhibition of cocaine cue reinstatement vs vehicle: 1 hr before session
Method: Training of male Sprague Dawley (SD) rats had 3 separate stages. First, during self administration, animals were trained to lever press for cocaine with presentation of concomitant cues associated with drug delivery. Rats that reached criteria for addiction were included in the study. Afterward, during cue extinction, cocaine-cue dependent behavior was extinguished. Lastly, during cocaine cue reinstatement, the effect of compounds was tested on lever presses upon cue presentation (FIG. 2).
Rats were trained to self administer i.v. cocaine (0.35 mg/kg/injection) daily (Monday to Friday) in standard operant chambers with retractable levers (Coulbourn Instruments, PA). During the daily 2 hr session, rats received a 0.05 ml infusion of 0.35 mg/kg cocaine every time the active lever was pressed. A cue light and tone turned on for 2 sec together with activation of a pump that delivered the cocaine solution. Rats were required to maintain an infusion rate of ≥20+ per day for at least 10 days before being moved to extinction training.
During extinction sessions lever presses no longer produced cocaine infusion and cue light/tone presentation was absent. Rats received a maximum of 15 extinction sessions.
On the next day after reaching extinction criteria, rats were treated orally with vehicle (Formulation 2B: 25% PEG400/5% Vit E TPGS/1% SLS/69% water with 0.5% Methocel) or drug (compound of Example 2 or compound of Example 5) before the cue reinstatement session. Cue reinstatement began with a tone and cue light. This 2 hr session was identical to the self-administration session (cue light and tone present upon active lever press) except that no cocaine was delivered. The number of active lever presses was compared to extinction lever responding. This is considered a measure of reinstatement. The next day, rats were returned to extinction sessions for at least 2 or 3 more sessions. Rats then received a second and last reinstatement session with an opposite treatment to the one received on the first reinstatement session (vehicle or drug treatment). […] The light/tone presentation triggers this response and it is interpreted as a measure of reinstatement even though cocaine is not available.

SMILES | effect on number of nicotine infusions ([1]; 5 mg/kg dose oral, independent groups) | inhibition of number of nicotine infusions vs vehicle ([1]; 10 mg-eq/kg oral, independent groups) [%] | inhibition of number of nicotine infusions vs vehicle ([1]; 30 mg-eq/kg oral, independent groups) [%] | effect on number of nicotine infusions ([2]; 5 mg-eq/kg oral) | inhibition of number of nicotine infusions vs vehicle ([2]; 10 mg-eq/kg oral) [%] | inhibition of number of nicotine infusions vs vehicle ([2]; 30 mg-eq/kg oral) [%] | effect on cocaine cue reinstatement ([3]; 2.5 mg-eq/kg oral, lowest dose tested) | inhibition of cocaine cue reinstatement vs vehicle ([3]; 2.5 mg/kg eq oral, N.S.) [%] | inhibition of cocaine cue reinstatement vs vehicle ([3]; 5 mg-eq/kg oral) [%] | inhibition of cocaine cue reinstatement vs vehicle ([3]; 10 mg-eq/kg oral) [%] | inhibition of cocaine cue reinstatement vs vehicle ([3]; 30 mg-eq/kg oral) [%] | effect on number of nicotine infusions ([1]; 1 mg/kg oral) | effect on number of nicotine infusions ([1]; 5 mg/kg oral)
O=C(NCc1ccc(-c2ccn(COP(=O)(O)O)c(=O)c2)cc1)c1c(Cl)cccc1Cl [Compound 14, phosphoric acid mono-(4-{4-[(2,6-dichloro-benzoylamino)-methyl]-phenyl}-2-oxo-2H-pyridin-1-ylmethyl) ester] | ineffective | 51 | 68 | ineffective | 48 | 62 | not significantly different from vehicle | 30 | 59 | 55 | 50 |  | 
O=C(NCc1ccc(-c2cc[nH]c(=O)c2)cc1)c1c(Cl)cccc1Cl [Compound 2, 2,6-dichloro-N-[4-(2-oxo-1,2-dihydro-pyridin-4-yl)-benzyl]-benzamide] |  |  |  |  |  |  |  |  |  |  |  | without effect | without effect
